The values that follow come from ChEMBL document CHEMBL3822420, “New peptide deformylase inhibitors design, synthesis and pharmacokinetic assessment” (Bioorg Med Chem Lett, 2016).

One may read the MIC as the lowest concentration found to suppress growth. The low end stands for inhibition by little substance, the high end for a need for much substance.

Converted amounts (≈) assume the structure as drawn. Some results are limits rather than exact numbers.

Type in all cases: functional
Experiment [1] relates to Escherichia coli. The experiment is described as follows: Antibacterial activity against Escherichia coli 14-1 expressing extended-spectrum beta-lactamase.
Experiment [2] deals with Enterococcus faecalis. The experiment is described as follows: Antibacterial activity against Enterococcus faecalis 14-5.
In experiment [3] the test system is Escherichia coli. The experiment is described as follows: Antibacterial activity against Escherichia coli 14-2.
For experiment [4], the system named is Staphylococcus aureus. The experiment is described as follows: Antibacterial activity against methicillin-resistant Staphylococcus aureus 14-5.
Experiment [5] relates to Staphylococcus aureus. The experiment is described as follows: Antibacterial activity against methicillin-sensitive Staphylococcus aureus 14-1.
The subject of experiment [6] is Staphylococcus aureus. The experiment is described as follows: Antibacterial activity against methicillin-sensitive Staphylococcus aureus 14-2.
The test system of experiment [7] is Escherichia coli. The experiment is described as follows: Antibacterial activity against Escherichia coli 14-1.
Experiment [8] has as its system Staphylococcus epidermidis. The experiment can be described thus: Antibacterial activity against methicillin-sensitive Staphylococcus epidermidis 14-1.
The subject of experiment [9] is Staphylococcus epidermidis. The experiment is described as follows: Antibacterial activity against methicillin-sensitive Staphylococcus epidermidis 14-2.
Experiment [10] concerns Staphylococcus aureus. The experiment is described as follows: Antibacterial activity against methicillin-resistant Staphylococcus aureus 14-2.
Experiment [11] deals with Enterococcus faecalis. The experiment is described as follows: Antibacterial activity against Enterococcus faecalis 14-2.
Experiment [12] concerns Staphylococcus aureus. The experiment can be described thus: Antibacterial activity against methicillin-resistant Staphylococcus aureus 14-1.
The test system of experiment [13] is Enterococcus faecalis. The experiment can be described thus: Antibacterial activity against Enterococcus faecalis 14-1.
The subject of experiment [14] is Staphylococcus epidermidis. The experiment can be described thus: Antibacterial activity against methicillin-resistant Staphylococcus epidermidis 14-1.
Experiment [15] relates to Staphylococcus epidermidis. The experiment is described as follows: Antibacterial activity against methicillin-sensitive Staphylococcus epidermidis 14-3.
The subject of experiment [16] is Staphylococcus epidermidis. The experiment is described as follows: Antibacterial activity against methicillin-resistant Staphylococcus epidermidis 14-4.
Experiment [17] has as its system Escherichia coli. The experiment is described as follows: Antibacterial activity against Escherichia coli 14-2 expressing extended-spectrum beta-lactamase.
The test system of experiment [18] is Staphylococcus aureus. The experiment is described as follows: Antibacterial activity against methicillin-resistant Staphylococcus aureus 14-4.
Experiment [19] has as its system Enterococcus faecalis. The experiment is described as follows: Antibacterial activity against Enterococcus faecalis 14-3.
The subject of experiment [20] is Staphylococcus epidermidis. The experiment is described as follows: Antibacterial activity against methicillin-resistant Staphylococcus epidermidis 14-3.
In experiment [21] the test system is Staphylococcus epidermidis. The experiment is described as follows: Antibacterial activity against methicillin-resistant Staphylococcus epidermidis 14-2.
In experiment [22] the test system is Staphylococcus aureus. The experiment is described as follows: Antibacterial activity against methicillin-sensitive Staphylococcus aureus 14-4.
In experiment [23] the test system is Staphylococcus aureus. The experiment is described as follows: Antibacterial activity against methicillin-sensitive Staphylococcus aureus 14-3.

With `CCCC[C@H](CN(O)C=O)C(=O)N1CC2(CC2)C[C@H]1C(=O)Nc1cc[nH]n1`, the minimum inhibitory concentration (MIC) in the experiment on Escherichia coli [1] was 16 µg/mL (≈ 42.4 µM); in the experiment on Enterococcus faecalis [2], above 128 µg/mL; against Escherichia coli [3] it was above 128 µg/mL; in the experiment on Staphylococcus aureus [4], 8 µg/mL (≈ 21.2 µM); with Staphylococcus aureus [5] it was 16 µg/mL (≈ 42.4 µM); against Staphylococcus aureus [6], 16 µg/mL (≈ 42.4 µM). Also, the MIC against Escherichia coli [7] is above 128 µg/mL; in experiment [8], 4 µg/mL (≈ 10.6 µM); in experiment [9], 16 µg/mL (≈ 42.4 µM); with Staphylococcus aureus [10] it was 32 µg/mL (≈ 84.8 µM); against Enterococcus faecalis [11], 64 µg/mL (≈ 170 µM); against Staphylococcus aureus [12] it was 16 µg/mL (≈ 42.4 µM). Further, the MIC against Enterococcus faecalis [13] amounted to 64 µg/mL (≈ 170 µM); in experiment [14], 8 µg/mL (≈ 21.2 µM); in experiment [15], 4 µg/mL (≈ 10.6 µM); in experiment [16], 8 µg/mL (≈ 21.2 µM); with Escherichia coli [17], 128 µg/mL (≈ 339 µM); in the experiment on Staphylococcus aureus [18], 16 µg/mL (≈ 42.4 µM). Further, the MIC is 64 µg/mL (≈ 170 µM) with Enterococcus faecalis [19]; 4 µg/mL (≈ 10.6 µM) in experiment [20]; 8 µg/mL (≈ 21.2 µM) in experiment [21]; 16 µg/mL (≈ 42.4 µM) against Staphylococcus aureus [22]; 16 µg/mL (≈ 42.4 µM) in the experiment with Staphylococcus aureus [23].
`CCCC[C@H](CN(O)C=O)C(=O)N1CC2(CC2)C[C@H]1C(=O)Nc1nccc(-c2cccnc2)n1`: the MIC in the experiment on Escherichia coli [1] was 2 µg/mL (≈ 4.29 µM); in the experiment with Enterococcus faecalis [2], 0.5 µg/mL (≈ 1.07 µM); against Escherichia coli [3], above 64 µg/mL; with Staphylococcus aureus [4], 0.25 µg/mL (≈ 0.536 µM); with Staphylococcus aureus [5], 0.25 µg/mL (≈ 0.536 µM); against Staphylococcus aureus [6], 0.5 µg/mL (≈ 1.07 µM). Further, the MIC against Escherichia coli [7] is above 64 µg/mL; in experiment [8], 0.125 µg/mL (≈ 0.268 µM); in experiment [9], 0.5 µg/mL (≈ 1.07 µM); in the experiment with Staphylococcus aureus [10], 0.5 µg/mL (≈ 1.07 µM); in the experiment on Enterococcus faecalis [11], 0.5 µg/mL (≈ 1.07 µM); against Staphylococcus aureus [12], 2 µg/mL (≈ 4.29 µM). Further, the minimum inhibitory concentration (MIC) against Enterococcus faecalis [13] is 0.5 µg/mL (≈ 1.07 µM); in experiment [14], 0.25 µg/mL (≈ 0.536 µM); in experiment [15] it was 0.25 µg/mL (≈ 0.536 µM); in [16], 0.5 µg/mL (≈ 1.07 µM); in the experiment on Escherichia coli [17] it was above 64 µg/mL; against Staphylococcus aureus [18], 2 µg/mL (≈ 4.29 µM). In addition, the MIC amounted to 1 µg/mL (≈ 2.14 µM) in the experiment with Enterococcus faecalis [19]; 0.125 µg/mL (≈ 0.268 µM) in experiment [20]; 0.25 µg/mL (≈ 0.536 µM) in experiment [21]; 0.25 µg/mL (≈ 0.536 µM) in the experiment on Staphylococcus aureus [22]; 0.5 µg/mL (≈ 1.07 µM) in the experiment with Staphylococcus aureus [23].
For the molecule `CCCC[C@H](CN(O)C=O)C(=O)N1CC2(CC2)C[C@H]1C(=O)Nc1ncccc1F`, the MIC with Escherichia coli [1] came out at 2 µg/mL (≈ 4.92 µM); with Enterococcus faecalis [2], 2 µg/mL (≈ 4.92 µM); with Escherichia coli [3], 64 µg/mL (≈ 157 µM); in the experiment on Staphylococcus aureus [4], 0.25 µg/mL (≈ 0.615 µM); against Staphylococcus aureus [5], 0.5 µg/mL (≈ 1.23 µM); against Staphylococcus aureus [6], 0.5 µg/mL (≈ 1.23 µM). Besides, the MIC in the experiment on Escherichia coli [7] was above 64 µg/mL; in [8], 0.125 µg/mL (≈ 0.308 µM); in experiment [9], 0.25 µg/mL (≈ 0.615 µM); in the experiment with Staphylococcus aureus [10], 0.5 µg/mL (≈ 1.23 µM); against Enterococcus faecalis [11], 2 µg/mL (≈ 4.92 µM); with Staphylococcus aureus [12], 0.5 µg/mL (≈ 1.23 µM). The MIC with Enterococcus faecalis [13] came out at 2 µg/mL (≈ 4.92 µM); in [14], 0.25 µg/mL (≈ 0.615 µM); in [15], 0.25 µg/mL (≈ 0.615 µM); in experiment [16], 0.5 µg/mL (≈ 1.23 µM); in the experiment with Escherichia coli [17], 64 µg/mL (≈ 157 µM); with Staphylococcus aureus [18] it was 0.5 µg/mL (≈ 1.23 µM). Besides, the MIC against Enterococcus faecalis [19] was 2 µg/mL (≈ 4.92 µM); in [20], 0.125 µg/mL (≈ 0.308 µM); in [21], 0.25 µg/mL (≈ 0.615 µM); in the experiment on Staphylococcus aureus [22], 0.5 µg/mL (≈ 1.23 µM); in the experiment with Staphylococcus aureus [23], 0.5 µg/mL (≈ 1.23 µM).
In the case of `Cc1nc(NNC(=O)[C@H](CC2CCCC2)CN(O)C=O)c(F)c(N2CCN3CCOC[C@@H]3C2)n1` [LANOPEPDEN], the MIC was 1 µg/mL (≈ 2.09 µM) against Escherichia coli [1]; above 64 µg/mL in the experiment on Enterococcus faecalis [2]; 64 µg/mL (≈ 133 µM) against Escherichia coli [3]; 0.25 µg/mL (≈ 0.521 µM) against Staphylococcus aureus [4]; 1 µg/mL (≈ 2.09 µM) in the experiment with Staphylococcus aureus [5]; 1 µg/mL (≈ 2.09 µM) in the experiment with Staphylococcus aureus [6]. For the same molecule, the MIC turned out to be 64 µg/mL (≈ 133 µM) against Escherichia coli [7]; 0.125 µg/mL (≈ 0.261 µM) in experiment [8]; 0.25 µg/mL (≈ 0.521 µM) in experiment [9]; 1 µg/mL (≈ 2.09 µM) in the experiment on Staphylococcus aureus [10]; 16 µg/mL (≈ 33.4 µM) against Enterococcus faecalis [11]; 2 µg/mL (≈ 4.17 µM) in the experiment with Staphylococcus aureus [12]. The MIC against Enterococcus faecalis [13] was 8 µg/mL (≈ 16.7 µM); in experiment [14] it was 0.125 µg/mL (≈ 0.261 µM); in experiment [15], 0.06 µg/mL (≈ 0.125 µM); in [16], 0.25 µg/mL (≈ 0.521 µM); in the experiment with Escherichia coli [17], above 64 µg/mL; with Staphylococcus aureus [18], 2 µg/mL (≈ 4.17 µM). Besides, the minimal inhibitory concentration (MIC) in the experiment on Enterococcus faecalis [19] was found to be 16 µg/mL (≈ 33.4 µM); in [20] it was 0.015 µg/mL (≈ 0.0313 µM); in experiment [21] it was 0.06 µg/mL (≈ 0.125 µM); in the experiment with Staphylococcus aureus [22] it was 1 µg/mL (≈ 2.09 µM); in the experiment on Staphylococcus aureus [23], 1 µg/mL (≈ 2.09 µM).
